Experimental data reported in patent US20160324885A1, “COMPOSITION CONTAINING MODIFIED DERIVATIVES OF A CYTIDINE ANTIMETABOLITE FOR THE TREATMENT OF SUSCEPTIBLE DISEASE” (ASTERIAPHARMA GMBH, priority 2013, published 2016).

Columns and labels:
HeLa cells [1] = experiment: HeLa xenograft tumor growth delay in immunodeficient mice; assay type: in vivo; conditions: 10 mg/kg intraperitoneally every fourth day, four doses
Experimental: Objective: To compare the anti-tumor activities of FpFpF trinucleotide and dFdC in vivo in a xenograft model. HeLa cells and immunodeficient mice were used in this assay as described below.
Methods. Immunodeficient CAnN.Cg-Fox1^nu/Cr1 (BALB/c) mice (The Jackson Laboratories) are well suited for the xenotransplantation of human tumors. HeLa cells (5×10^6) were mixed 1:1 with matrigel in a final volume of 0.1 ml and then injected subcutaneously in the right flank of each mouse. Treatments were initiated at the time when the tumor volume reached approximately 200 mm^3. The drugs (FpFpF trinucleotide or dFdC) were administered intraperitoneally at 10 mg/kg every fourth day for a total of four doses. Tumor volumes were calculated with the ellipsoid volume formula (L×W×H×π/6) (Tomayko and Reynolds, 1989). Tumor volume values were transformed to a log scale. A two-way analysis of variance by time and treatment was used. The data are finally expressed as means and standard errors for each treatment group against time. A Weibull distribution was assumed to calculate mean times and standard errors for each treatment group. Tumor growth delay was defined as the difference in mean time between each treated group and the control group.

Panc-1 cells = experiment: Inhibition of proliferation of Panc-1 cells; assay type: cell-based; conditions: Homo sapiens, read-out: ID50 (the source's name)
Experimental: Methods: The FpFpF trinucleotide was coupled to lipid as described in the Example 3 for the Palmitoyl-trinucleotide (5′-FpFpF-3′-Pal). Panc-1 cells were plated one day before treatment at a density of 5000 cells/well in a 96-well plate with 100 μl/well of medium RPMI/Glutamax™/1 mM sodium pyruvate/PS/10% FBS and cultured at 37° C./5% CO2. Treatments (6 wells per condition) with wither dFdC, FpFpF and FpFpF-Pal were carried out at the indicated concentrations.

[2] = mice, normal tissues and subcutaneous sarcoma tissue; cited from earlier work
[3] = in vivo; cited from earlier work
HeLa cells [4] = experiment: Proliferation of HeLa cells treated with drug pre-incubated with human serum; assay type: cell-based; conditions: serum pre-incubation 2 hours at 37° C., then 72 hours on cells
Experimental: (§1) Methods: The cells were seeded in 96-well plates one day before treatment at a density of 5000 cells/well in 100 μl/well of medium DMEM/Glutamax™/1 mM sodium pyruvate/PS/10%/FBS and cultured at 37° C./5% CO2. Separate serum dilutions of dFdC and FpFpF trinucleotide were prepared from 1 mM stock solutions to a final concentration of 20 μmol/L. The sera aliquots containing either drug were incubated at 37° C./5% CO2 for the indicated times before they were added to the cells to the indicated final concentrations. The cells were incubated for further 72 hours after which the cell proliferation was quantified using the WST-1 assay. Two controls were run in parallel: untreated cells and cells treated with dFdC or FpFpF trinucleotides that were not incubated with serum.

[5] = following intravenous administration; cited from earlier work
MIA PaCa-2 cells = experiment: Proliferation of MIA PaCa-2 cells treated with drug pre-incubated with human serum; assay type: cell-based; conditions: MIA PaCa-2, serum pre-incubation 2 hours at 37° C., then 72 hours on cells
Experimental: as §1

HeLa cells [6] = experiment: WST-1 cell proliferation assay, HeLa cells; assay type: cell-based, human; design: dose or concentration left out as unconfirmed; conditions: 5 days after start of treatment, WST-1, relative to untreated cells
Experimental: FIG. 1. Inhibition of proliferation of human cancer cells treated with either dFdC or homo-oligomers and hetero-oligomers containing dFdC. HeLa cells growing on 96-well plates (5000 cells/well) were treated with: 1) TpF; 2) FpF; 3) TpFpF; 4) FpFpF; 5) dFdC. The concentration of drug in the culture medium […]. Cell proliferation was measured 5 days after treatment was started using the WST-1 assay. The mean value obtained with untreated cells was set at 1.
Methods: Cervical cancer cell lines (HeLa, SiHa, CaSki and C-33) were cultured at 37° C./5% CO2 in medium containing DMEM with Glutamax™, 1 mM sodium pyruvate, penicillin/streptomycin (PS) and 10% fetal bovine serum (FBS) (Invitrogen/LifeTechnologies). […] The cells were incubated with WST-1 for 1 hour at 37° C./5% CO2, then the amount of formazan dye produced was quantified using a scanning spectrophotometer (ELISA plate reader). The absorbance was measured with a test wavelength at 450 nm and a reference wavelength at 630 nm. Then, the 630 nm background absorbance was subtracted from the 450 nm measurement. […]
2) The FpFpF trinucleotide was tested in comparison with dFdC for its ability to inhibit cell growth of tumor cells of different origin: pancreatic cancer (MIA PaCa-2, ASPC) cervical (HeLa, CaSki, C33A) and hepatic (Huh-7) cancers. […] At this time cell proliferation was quantified using the WST-1 assay as described above. […]

Molecule | Tumor Growth Delay at 500 mm^3, Mean ± S.E.M. (HeLa cells [1]; tumor size 500 mm^3) [days] | Tumor Growth Delay at 700 mm^3, Mean ± S.E.M. (HeLa cells [1]; tumor size 700 mm^3) [days] | Tumor Growth Delay at 900 mm^3, Mean ± S.E.M. (HeLa cells [1]; tumor size 900 mm^3) [days] | IC50 (Panc-1 cells) [µM] | time radiolabeled dFdC remains in tissues [2] | excreted unprocessed in the urine [3] | inhibition of proliferation after pre-incubation of drug with human serum (HeLa cells [4]) [%] | half-life in the human plasma [5] [min] | inhibition of proliferation after pre-incubation of drug with human serum (MIA PaCa-2 cells) [%] | inhibition of cell proliferation (HeLa cells [6]) [%]
Nc1ccn([C@@H]2O[C@H](CO)[C@@H](O)C2(F)F)c(=O)n1 [dFdC, 2′.2′-difluoro 2′-deoxycytidine] | 2.8 ± 0.3 | 4.9 ± 0.6 | 7.7 ± 0.5 | 12.2 | up to 3 hours | less than 10% | 5 | 8 to 17 | 10 | –
thymidinyl 3′-5′ phosphate 2′-deoxy-2′,2′-difluorocytidine [TpF] | – | – | – | – | – | – | – | – | – | 19
2′-deoxy-2′,2′-difluorocytidinyl 3′-5′ phosphate 2′-deoxy-2′,2′-difluorocytidine [FpF] | – | – | – | – | – | – | – | – | – | ~56
